According to ChEMBL document CHEMBL1201862, “PubChem BioAssay data set” (2004):
Calls of active or inactive are those of the source.

Experiments:
[1] = target: Fructose-bisphosphate aldolase (Mycobacterium tuberculosis, UniProt P9WQA3); assay: Fluorescence-based biochemical high throughput dose response assay for inhibitors of the fructose-bisphosphate aldolase (FBA) of M. tuberculosis.; type: functional
[2] = target: Adenosylmethionine-8-amino-7-oxononanoate aminotransferase (Mycobacterium tuberculosis, UniProt P9WQ81); assay: Mycobacterium tuberculosis BioA enzyme inhibitor Measured in Biochemical System Using Plate Reader - 2163-02_Inhibitor_Dose_CherryPick_Activity.; type: functional, Mycobacterium tuberculosis UT205
[3] = target: T1, Sentrin-specific protease 1 (Homo sapiens, UniProt Q9P0U3); assay: Dose response confirmation of small molecule inhibitors of the catalytic domain of the SUMO protease, SENP1 in a FRET assay.; type: functional; conditions: read-out: IC50_Mean
T1 sequence (Q9P0U3 whole entry): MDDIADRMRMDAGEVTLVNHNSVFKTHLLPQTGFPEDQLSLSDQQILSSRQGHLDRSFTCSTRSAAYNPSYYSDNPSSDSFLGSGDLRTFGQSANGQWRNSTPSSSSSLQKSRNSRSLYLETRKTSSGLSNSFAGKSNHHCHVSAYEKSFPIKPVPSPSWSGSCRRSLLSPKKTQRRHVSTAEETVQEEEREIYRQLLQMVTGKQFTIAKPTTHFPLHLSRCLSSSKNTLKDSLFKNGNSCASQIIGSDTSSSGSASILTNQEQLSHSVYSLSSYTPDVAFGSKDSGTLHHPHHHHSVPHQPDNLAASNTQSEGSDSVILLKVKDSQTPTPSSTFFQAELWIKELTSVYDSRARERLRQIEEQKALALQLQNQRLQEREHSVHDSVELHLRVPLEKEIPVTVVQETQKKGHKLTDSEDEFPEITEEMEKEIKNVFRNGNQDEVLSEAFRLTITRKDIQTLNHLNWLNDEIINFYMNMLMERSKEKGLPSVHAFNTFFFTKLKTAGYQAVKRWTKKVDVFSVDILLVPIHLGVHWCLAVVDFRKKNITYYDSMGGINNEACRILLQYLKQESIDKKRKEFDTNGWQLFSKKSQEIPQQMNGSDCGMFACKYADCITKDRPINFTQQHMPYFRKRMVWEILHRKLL

[4] = target: T1, Sentrin-specific protease 1; assay: potency of human SENP1 inhibitors, dose response, biochemical, kinetic FRET (AID 651697); type: functional; conditions: read-out: IC50_Mean
[5] = intracellular Trypanosoma cruzi inhibitors in host cells – cell-based, plate reader, cherry-pick samples, set 3, dose response (AID 651818); type: functional;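 note: compounds incubated with infected cells for about four days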
[6] = target: Mitochondrial peptide methionine sulfoxide reductase (Bos taurus, UniProt P54149); type: functional;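 note: absorbance read-out, biochemical high-throughput dose-response screen for MsrA inhibitors, confirmatory; recombinant bovine MsrA coupled to E. coli TrxB with NADPH and selenocystamine; potency is for inhibitors of MsrA activity on DMSO substrate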
[7] = inhibitors of clade B AD8 Env fusion, dose response, cell-based, cherry-pick (AID 652062); type: functional;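 note: luciferase signal from cell-cell fusion driven by HIV-1 clade B AD8 Env; potency is for inhibitors of fusion seen as a drop in luminescence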
[8] = target: Cytochrome P450 2D6 (Homo sapiens, UniProt P10635);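 note: CYP2D6 member of a cytochrome P450 panel assay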
[9] = target: T2, Latent membrane protein 1 (Human herpesvirus 4 (strain B95-8), UniProt P03230); assay: TES1-eGFP NF-kB reporter inhibition versus Tet-On dsRED, dose response, selectivity assay for LMP1 NF-kB inhibitor project, imaging, HEK293T, dual-color eGFP/dsRED, cherry-picks (AID 588398); type: functional, cell-based
T2 sequence (P03230 whole entry): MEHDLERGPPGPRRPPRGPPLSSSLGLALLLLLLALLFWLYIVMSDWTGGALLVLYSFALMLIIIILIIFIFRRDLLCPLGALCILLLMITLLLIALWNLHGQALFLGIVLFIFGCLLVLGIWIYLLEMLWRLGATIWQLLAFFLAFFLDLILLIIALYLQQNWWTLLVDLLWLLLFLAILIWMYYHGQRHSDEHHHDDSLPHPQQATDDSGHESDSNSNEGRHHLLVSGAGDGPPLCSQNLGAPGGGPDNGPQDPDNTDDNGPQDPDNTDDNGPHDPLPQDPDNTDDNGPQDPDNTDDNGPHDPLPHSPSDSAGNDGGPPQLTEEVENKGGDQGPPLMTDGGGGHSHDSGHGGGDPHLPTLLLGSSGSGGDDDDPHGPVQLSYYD

[10] = inhibitors of HIV Env-driven cell fusion, dose response, cherry-pick (AID 652057); type: functional, cell-based
[11] = target: Cytochrome P450 2C19 (Homo sapiens, UniProt P33261); assay: Cytochrome panel assay with activity outcomes. Panel member name: p450-cyp2c19 Compounds with AC50 equal or less than 10 uM are considered active; type: functional; conditions: read-out: AC50
[12] = target: T3, Cytochrome P450 1A2 (Homo sapiens, UniProt P05177);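 note: PubChem cytochrome P450 panel assay, CYP1A2 panel member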
T3 sequence (P05177 whole entry): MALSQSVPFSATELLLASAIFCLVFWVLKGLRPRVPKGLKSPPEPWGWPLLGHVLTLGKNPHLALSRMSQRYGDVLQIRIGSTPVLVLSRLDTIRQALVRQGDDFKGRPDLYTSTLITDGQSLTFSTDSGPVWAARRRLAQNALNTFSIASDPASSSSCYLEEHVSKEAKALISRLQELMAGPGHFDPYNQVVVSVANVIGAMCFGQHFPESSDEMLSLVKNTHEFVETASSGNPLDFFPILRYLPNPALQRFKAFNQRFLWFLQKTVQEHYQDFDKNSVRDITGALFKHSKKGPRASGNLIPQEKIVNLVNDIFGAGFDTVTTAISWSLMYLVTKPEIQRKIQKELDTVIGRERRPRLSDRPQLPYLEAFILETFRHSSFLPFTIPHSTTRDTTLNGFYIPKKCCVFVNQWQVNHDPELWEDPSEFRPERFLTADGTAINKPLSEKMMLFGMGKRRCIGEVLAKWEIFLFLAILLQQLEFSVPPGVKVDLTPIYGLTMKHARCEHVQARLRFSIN

[13] = test system: HEK293; assay: inhibitors of LMP1-driven NF-kB reporter, dose response, cell-based, HEK293, luciferase, cherry-pick (AID 588343); type: functional; conditions: Homo sapiens
[14] = StAR promoter reporter inhibition counter-screen, dose response, counter-screen for LRH-1 inverse agonist project, cell-based, luminescence, luciferase reporter (AID 651969); type: functional
[15] = target: Nuclear receptor subfamily 5 group A member 2 (Homo sapiens, UniProt O00482); type: functional, cell-based;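 note: HEK293T cells transfected with LRH-1 and a StAR promoter luciferase reporter; potency for inhibitors that lower LRH-1 driven reporter light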
[16] = target: Steroidogenic factor 1 (Homo sapiens, UniProt Q13285); assay: Counterscreen for inverse agonists of the liver receptor homolog-1 (LRH-1; NR5A2): Luminescence-based cell-based high throughput dose response assay to identify inverse agonists of the Steroidogenic Factor 1 Nuclear Receptor (SF1; NR5A1).; type: functional
[17] = Counterscreen for inhibitors of Trypanosoma brucei methionyl tRNA synthetase (MetRS): Luminescence-based cell-based high throughput dose response assay to identify compounds that are cytotoxic to Jurkat human T lymphocyte cells.; type: functional
[18] = target: Protein Wnt-3a (Mus musculus, UniProt P27467); assay: Wnt3a-driven reporter signaling inhibition, dose response, selectivity assay for Gli-SUFU antagonist project, Wnt-LIGHT cells, luminescence (AID 651570); type: functional; conditions: read-out: IC50_Mean;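 note: Wnt-LIGHT reporter cells stimulated with conditioned medium from Wnt3a-producing cells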
[19] = target: T4, Histone-lysine N-methyltransferase NSD2 (Homo sapiens, UniProt O96028); type: biochemical
T4 sequence (O96028 whole entry): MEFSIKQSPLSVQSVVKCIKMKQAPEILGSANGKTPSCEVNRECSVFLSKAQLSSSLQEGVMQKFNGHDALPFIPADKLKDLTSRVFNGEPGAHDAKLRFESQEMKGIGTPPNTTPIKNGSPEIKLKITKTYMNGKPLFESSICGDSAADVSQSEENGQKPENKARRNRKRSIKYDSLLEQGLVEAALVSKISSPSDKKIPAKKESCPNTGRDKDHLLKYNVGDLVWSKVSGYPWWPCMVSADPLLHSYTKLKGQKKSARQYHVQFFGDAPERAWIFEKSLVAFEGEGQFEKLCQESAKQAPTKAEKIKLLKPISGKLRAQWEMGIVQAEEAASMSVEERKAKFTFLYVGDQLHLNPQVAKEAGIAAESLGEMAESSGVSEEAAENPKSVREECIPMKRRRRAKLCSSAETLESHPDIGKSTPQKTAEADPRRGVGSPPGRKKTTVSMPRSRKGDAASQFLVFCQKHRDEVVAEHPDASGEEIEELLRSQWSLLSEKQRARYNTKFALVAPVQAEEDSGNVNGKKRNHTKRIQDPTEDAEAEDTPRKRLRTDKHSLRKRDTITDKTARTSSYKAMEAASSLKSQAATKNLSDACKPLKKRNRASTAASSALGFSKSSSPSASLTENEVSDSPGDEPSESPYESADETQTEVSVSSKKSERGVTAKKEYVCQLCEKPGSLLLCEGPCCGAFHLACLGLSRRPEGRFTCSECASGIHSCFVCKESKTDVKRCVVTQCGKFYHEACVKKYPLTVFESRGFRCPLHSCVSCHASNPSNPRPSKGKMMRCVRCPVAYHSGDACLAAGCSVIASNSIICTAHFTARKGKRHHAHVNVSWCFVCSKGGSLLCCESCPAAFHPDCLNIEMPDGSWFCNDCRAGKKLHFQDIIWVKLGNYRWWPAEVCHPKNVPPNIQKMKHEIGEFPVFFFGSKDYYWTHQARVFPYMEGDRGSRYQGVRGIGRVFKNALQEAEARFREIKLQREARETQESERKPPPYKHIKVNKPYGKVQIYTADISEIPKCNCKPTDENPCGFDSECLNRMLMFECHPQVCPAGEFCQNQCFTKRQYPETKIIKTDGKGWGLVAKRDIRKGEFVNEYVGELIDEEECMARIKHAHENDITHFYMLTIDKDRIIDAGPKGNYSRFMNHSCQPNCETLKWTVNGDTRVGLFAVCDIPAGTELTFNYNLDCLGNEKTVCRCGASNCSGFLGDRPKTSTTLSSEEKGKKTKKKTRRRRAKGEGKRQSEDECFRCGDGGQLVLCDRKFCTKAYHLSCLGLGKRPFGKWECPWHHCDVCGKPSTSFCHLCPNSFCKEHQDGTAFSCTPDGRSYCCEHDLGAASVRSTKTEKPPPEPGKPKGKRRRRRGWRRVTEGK

[20] = cells; type: functional
[21] = target: T5, Methionyl-tRNA synthetase, putative (Trypanosoma brucei brucei, UniProt Q38C91); type: functional, Trypanosoma brucei brucei strain 927/4 GUTat10.1;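 note: Read-out by fluorescence polarization, run as a confirmatory high-throughput counterscreen; potency of MetRS inhibitors measured by reduced AMP formation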
T5 sequence (Q38C91 whole entry): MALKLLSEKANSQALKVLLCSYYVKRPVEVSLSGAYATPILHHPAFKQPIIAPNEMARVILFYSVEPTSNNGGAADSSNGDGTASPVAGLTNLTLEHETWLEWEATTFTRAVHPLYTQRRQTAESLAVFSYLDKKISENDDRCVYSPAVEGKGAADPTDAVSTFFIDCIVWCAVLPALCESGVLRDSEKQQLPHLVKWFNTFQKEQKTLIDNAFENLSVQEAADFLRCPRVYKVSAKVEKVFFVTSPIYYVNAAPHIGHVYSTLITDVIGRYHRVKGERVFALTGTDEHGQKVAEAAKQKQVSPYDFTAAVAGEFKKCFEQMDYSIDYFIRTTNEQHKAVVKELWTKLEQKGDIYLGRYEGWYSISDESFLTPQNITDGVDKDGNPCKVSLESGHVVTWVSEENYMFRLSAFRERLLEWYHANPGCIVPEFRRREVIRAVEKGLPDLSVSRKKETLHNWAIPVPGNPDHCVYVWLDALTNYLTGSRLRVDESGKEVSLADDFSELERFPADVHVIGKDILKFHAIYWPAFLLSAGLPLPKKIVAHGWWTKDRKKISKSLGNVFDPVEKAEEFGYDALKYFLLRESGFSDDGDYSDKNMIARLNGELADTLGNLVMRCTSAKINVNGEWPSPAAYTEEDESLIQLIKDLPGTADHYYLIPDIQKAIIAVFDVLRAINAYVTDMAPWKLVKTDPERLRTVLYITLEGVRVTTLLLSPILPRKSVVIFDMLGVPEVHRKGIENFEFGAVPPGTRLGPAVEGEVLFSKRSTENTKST

Sequence of Mitochondrial peptide methionine sulfoxide reductase (P54149 whole entry, the tested form may be a part): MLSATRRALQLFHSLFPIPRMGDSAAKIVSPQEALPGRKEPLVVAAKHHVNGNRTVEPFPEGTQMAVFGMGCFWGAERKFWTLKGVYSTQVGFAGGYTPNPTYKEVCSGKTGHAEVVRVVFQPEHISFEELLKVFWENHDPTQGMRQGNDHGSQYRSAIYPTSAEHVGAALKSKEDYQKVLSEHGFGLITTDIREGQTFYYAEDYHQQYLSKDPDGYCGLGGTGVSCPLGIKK
Sequence of Fructose-bisphosphate aldolase (P9WQA3 whole entry): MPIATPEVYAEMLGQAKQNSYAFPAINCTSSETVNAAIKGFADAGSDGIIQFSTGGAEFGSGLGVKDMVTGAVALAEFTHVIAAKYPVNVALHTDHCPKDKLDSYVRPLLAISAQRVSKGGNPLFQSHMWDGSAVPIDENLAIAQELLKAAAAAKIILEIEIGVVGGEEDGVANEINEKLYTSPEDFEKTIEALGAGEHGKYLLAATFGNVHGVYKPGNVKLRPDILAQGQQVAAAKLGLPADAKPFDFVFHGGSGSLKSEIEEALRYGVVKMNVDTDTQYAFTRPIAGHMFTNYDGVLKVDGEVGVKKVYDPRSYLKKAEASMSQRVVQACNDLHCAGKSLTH
Sequence of Nuclear receptor subfamily 5 group A member 2 (O00482 whole entry): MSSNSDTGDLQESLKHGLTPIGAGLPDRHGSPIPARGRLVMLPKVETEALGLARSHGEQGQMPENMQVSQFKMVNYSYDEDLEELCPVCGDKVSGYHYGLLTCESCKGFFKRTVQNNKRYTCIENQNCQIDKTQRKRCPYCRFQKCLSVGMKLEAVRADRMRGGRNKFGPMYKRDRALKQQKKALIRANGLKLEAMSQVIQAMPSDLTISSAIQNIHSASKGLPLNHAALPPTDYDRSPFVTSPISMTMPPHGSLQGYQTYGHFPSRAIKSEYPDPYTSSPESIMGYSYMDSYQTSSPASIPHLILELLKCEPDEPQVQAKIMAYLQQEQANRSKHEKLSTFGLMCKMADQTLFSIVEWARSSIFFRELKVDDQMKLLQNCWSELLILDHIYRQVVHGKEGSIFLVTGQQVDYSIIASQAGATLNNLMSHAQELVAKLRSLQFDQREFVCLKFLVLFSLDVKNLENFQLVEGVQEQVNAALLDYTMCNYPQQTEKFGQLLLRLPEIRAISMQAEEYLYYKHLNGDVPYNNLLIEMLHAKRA
Sequence of Adenosylmethionine-8-amino-7-oxononanoate aminotransferase (P9WQ81 whole entry, the tested form may be a part): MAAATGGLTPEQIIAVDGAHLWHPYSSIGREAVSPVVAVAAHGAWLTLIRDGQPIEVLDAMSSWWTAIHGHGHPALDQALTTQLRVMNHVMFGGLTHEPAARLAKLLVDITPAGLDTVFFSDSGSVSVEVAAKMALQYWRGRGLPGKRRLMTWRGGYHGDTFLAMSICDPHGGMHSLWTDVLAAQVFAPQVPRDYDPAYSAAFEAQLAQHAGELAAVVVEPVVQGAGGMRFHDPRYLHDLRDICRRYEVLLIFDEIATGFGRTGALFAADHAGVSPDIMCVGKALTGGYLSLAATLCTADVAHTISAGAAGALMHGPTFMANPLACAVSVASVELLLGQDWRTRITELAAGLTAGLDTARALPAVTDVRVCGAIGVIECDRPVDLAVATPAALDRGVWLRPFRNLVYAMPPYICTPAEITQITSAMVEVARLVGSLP
Sequence of Steroidogenic factor 1 (Q13285 whole entry): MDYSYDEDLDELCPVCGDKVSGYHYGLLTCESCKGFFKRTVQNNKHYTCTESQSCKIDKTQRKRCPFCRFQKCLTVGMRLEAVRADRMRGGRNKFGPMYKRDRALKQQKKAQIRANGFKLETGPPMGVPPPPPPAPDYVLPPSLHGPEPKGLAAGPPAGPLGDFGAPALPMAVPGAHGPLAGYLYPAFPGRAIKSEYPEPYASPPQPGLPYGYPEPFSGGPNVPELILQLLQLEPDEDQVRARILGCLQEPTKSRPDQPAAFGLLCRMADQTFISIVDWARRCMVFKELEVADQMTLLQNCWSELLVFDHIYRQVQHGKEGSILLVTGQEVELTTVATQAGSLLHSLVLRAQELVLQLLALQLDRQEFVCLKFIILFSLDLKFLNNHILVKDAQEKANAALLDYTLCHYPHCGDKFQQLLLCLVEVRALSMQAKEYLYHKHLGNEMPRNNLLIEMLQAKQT
Sequence of Protein Wnt-3a (P27467 whole entry): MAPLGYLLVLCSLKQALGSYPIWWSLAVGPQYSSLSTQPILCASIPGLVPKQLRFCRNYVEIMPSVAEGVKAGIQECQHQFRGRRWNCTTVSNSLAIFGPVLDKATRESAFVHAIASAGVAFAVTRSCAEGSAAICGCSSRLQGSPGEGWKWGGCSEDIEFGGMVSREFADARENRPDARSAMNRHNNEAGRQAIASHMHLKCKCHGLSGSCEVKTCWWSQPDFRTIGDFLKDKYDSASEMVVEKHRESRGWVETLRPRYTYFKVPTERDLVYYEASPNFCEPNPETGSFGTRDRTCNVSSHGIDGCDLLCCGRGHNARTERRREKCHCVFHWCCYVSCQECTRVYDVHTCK
Sequence of Cytochrome P450 2C19 (P33261 whole entry): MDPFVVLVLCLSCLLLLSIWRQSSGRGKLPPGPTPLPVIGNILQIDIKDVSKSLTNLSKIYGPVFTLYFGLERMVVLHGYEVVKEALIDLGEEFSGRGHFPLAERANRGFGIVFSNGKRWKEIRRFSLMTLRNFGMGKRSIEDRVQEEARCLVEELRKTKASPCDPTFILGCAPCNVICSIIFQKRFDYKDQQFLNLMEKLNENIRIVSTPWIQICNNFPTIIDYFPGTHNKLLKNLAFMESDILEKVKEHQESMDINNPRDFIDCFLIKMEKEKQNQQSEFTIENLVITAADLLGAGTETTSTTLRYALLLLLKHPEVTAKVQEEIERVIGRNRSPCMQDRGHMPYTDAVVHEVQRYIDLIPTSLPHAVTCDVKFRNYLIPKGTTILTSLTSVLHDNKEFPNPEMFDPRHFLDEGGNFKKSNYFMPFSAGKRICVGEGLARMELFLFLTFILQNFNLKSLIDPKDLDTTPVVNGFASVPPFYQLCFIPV
Sequence of Cytochrome P450 2D6 (P10635 whole entry): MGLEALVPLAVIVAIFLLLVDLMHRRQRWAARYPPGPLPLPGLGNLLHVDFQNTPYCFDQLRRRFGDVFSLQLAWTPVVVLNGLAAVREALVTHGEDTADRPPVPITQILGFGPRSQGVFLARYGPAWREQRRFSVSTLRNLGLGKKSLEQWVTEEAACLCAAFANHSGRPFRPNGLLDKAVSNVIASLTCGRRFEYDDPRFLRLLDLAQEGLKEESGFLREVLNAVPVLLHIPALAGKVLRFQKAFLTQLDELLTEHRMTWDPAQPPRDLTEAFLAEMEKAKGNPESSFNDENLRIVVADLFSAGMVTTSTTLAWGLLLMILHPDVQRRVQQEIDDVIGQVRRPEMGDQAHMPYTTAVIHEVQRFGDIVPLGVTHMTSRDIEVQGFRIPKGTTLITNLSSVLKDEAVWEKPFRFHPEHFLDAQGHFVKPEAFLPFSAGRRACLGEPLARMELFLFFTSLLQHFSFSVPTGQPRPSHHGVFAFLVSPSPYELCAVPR

## N#CC1=C(C2CC2)CC(c2ccccc2)C(C#N)=C1N (stereo not given)
[1]
  IC50: > 10 µM (inactive)

## COc1ccc(Cn2ccc(=O)c(Cc3c(Cl)cccc3Cl)c2C)cc1
[2]
  AC50: 7.22 µM (active)

## COc1ccc(/C=N/N2C(=O)CSC2=S)cc1Br
[3]
  IC50: 9.69 µM (active)
[4]
  IC50: 19.3 µM (active)

## C[C@H](CO)N1C[C@H](C)[C@H](CN(C)Cc2ccc3c(c2)OCO3)Oc2c(NC(=O)c3nc4ccccc4s3)cccc2C1=O
[5]
  AC50: 4.58 µM (active)

## CCOC(=O)/C(C#N)=C/C(C(=N)N1CCN(c2ccc(OC)cc2)CC1)=C(/O)OCC
[6]
  IC50: 139 µM (inactive)

## COc1ccc(S(=O)(=O)NNC(=O)C2Cc3c(ccc4ccccc34)O2)cc1 (stereo not given)
[7]
  AC50: 13.2 µM (active)
[8]
  AC50: 39.8 µM (inconclusive)
[9]
  AC50: 74.8 µM (active)
[10]
  AC50: 43.7 µM (active)
[11]
  AC50: 5.62 µM (inconclusive)
[12]
  AC50: 25.1 µM (inconclusive)
[13]
  AC50: > 350 µM (inactive)

## O=C(NCC1CCCO1)c1ccc(NC(=O)c2cccc([N+](=O)[O-])c2)cc1 (stereo not given)
[14]
  IC50: 35.9 µM (inactive)
[15]
  IC50: 3.99 µM (active)
[16]
  IC50: 1.32 µM (active)

## O=C(CSc1nc2cc(Cl)ccc2[nH]1)c1c[nH]c2ccccc12
[17]
  IC50: 83.3 µM (inactive)

## CCOC(=O)/C(C#N)=C/Nc1ccccc1OC
[6]
  IC50: 155 µM (inactive)

## CC1=C(C(N)=O)S(=O)(=O)c2ccccc21
[3]
  IC50: 23 µM (inactive)
[4]
  IC50: 19.6 µM (active)

## CCN1CCCC1CNc1[nH]cnc2c3cc(Cl)ccc3nc1-2 (stereo not given)
[18]
  IC50: 50 µM (inactive)
[19]
  AC50: > 20 µM (inactive)

## COc1ccc(Nc2c(-c3ccc(OC)cc3)nc3cnccn23)cc1
[2]
  AC50: 1.34 µM (active)

## C[C@@H]1CN([C@@H](C)CO)C(=O)Cc2cc(NC(=O)Nc3ccc(F)cc3)ccc2O[C@@H]1CN(C)Cc1ccc(C(=O)Nc2ccccc2N)cc1
[5]
  AC50: 2.16 µM (active)

## CCCC(C(=O)Nc1ccc2c(C)cc(=O)oc2c1)c1ccccc1 (stereo not given)
[1]
  IC50: 1.23 µM (active)

## Cc1ccc(NC(=O)COC(=O)C(NS(=O)(=O)c2ccc(Cl)cc2)C(C)O)cc1C (stereo not given)
[14]
  IC50: 35.9 µM (inactive)
[15]
  IC50: 12 µM (inactive)
[20]
  IC50: 6.57 µM (active)
[16]
  IC50: 2.17 µM (active)

## O=C(CSc1nc2ccc(Cl)cc2[nH]1)c1c[nH]c2ccccc12
[21]
  IC50: 39.5 µM (inactive)
